The record followed here is BindingDB's records for doi:10.1002/cbic.200800538 (University of Toronto, 2009).

In the test the target is T1, Alpha-mannosidase 2 (Drosophila melanogaster, UniProt Q24451).
T1 sequence (Q24451 whole entry): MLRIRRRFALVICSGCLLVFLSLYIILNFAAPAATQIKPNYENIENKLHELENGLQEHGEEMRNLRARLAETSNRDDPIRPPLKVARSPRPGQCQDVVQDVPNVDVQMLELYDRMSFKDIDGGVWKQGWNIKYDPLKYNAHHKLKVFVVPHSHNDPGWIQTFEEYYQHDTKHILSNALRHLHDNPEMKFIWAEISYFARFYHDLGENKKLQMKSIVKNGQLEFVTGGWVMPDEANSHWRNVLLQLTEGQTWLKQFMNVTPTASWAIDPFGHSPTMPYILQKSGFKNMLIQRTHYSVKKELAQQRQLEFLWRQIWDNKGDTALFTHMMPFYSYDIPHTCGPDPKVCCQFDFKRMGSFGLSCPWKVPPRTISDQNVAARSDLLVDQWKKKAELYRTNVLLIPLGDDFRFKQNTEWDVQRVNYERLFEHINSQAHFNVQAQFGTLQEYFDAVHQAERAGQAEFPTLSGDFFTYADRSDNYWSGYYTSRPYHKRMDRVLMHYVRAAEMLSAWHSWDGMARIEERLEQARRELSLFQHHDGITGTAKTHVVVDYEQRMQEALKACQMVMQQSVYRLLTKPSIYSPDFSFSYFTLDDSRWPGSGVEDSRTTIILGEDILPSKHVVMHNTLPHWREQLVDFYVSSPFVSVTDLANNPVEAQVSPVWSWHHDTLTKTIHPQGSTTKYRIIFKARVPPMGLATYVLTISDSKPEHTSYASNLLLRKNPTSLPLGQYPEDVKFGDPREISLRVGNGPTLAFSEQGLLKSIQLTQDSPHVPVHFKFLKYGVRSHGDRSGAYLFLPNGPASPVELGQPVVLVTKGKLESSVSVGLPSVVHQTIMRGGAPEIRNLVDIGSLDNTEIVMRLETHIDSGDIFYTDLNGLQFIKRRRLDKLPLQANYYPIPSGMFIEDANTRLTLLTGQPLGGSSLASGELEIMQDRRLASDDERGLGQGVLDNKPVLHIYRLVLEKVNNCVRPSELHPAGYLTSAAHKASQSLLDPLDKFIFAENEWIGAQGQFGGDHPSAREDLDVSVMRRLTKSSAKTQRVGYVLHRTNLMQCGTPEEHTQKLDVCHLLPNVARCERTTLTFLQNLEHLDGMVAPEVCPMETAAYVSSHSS
Put plainly: Inhibition Assay. Here is the method: The rate of hydrolysis catalyzed by drosophila golgi alpha-mannosidase II (dGMII)and in the presence of different concentration of inhibitor was measured fluorometrically and Ki values were determined from Dixon plots.

`N[C@H]1[C@@H](O)[C@@H](O)[C@@H](O)[C@H]1O` [Mannostatin analogue, 4b]: the IC50 turned out to be 100 µM. `C[S+]([O-])[C@@H]1[C@@H](N)[C@@H](O)[C@@H](O)[C@H]1O` (some centres not stated) [Mannostatin B, 2] gave an inhibitory constant (Ki) of 0.15 µM.
